# Laboratory results taken from article PMC4148842 (The Journal of Biological Chemistry, 2014).
# Entries after “also recorded” stand apart in the source; their conditions may differ.
# Legend:
# [1] = biological target: T1, MMP-13 (Homo sapiens, UniProt P45452); assay: MMP-13 Toolkit solid-phase binding assay (SPBA), wild type active MMP-13; parameters: made in house; host or cells: mouse myeloma cells; conditions: 1 h, 24 °C; for binding: wild type active MMP-13, 83 nM, coating 10 μg/ml
# Excerpt: (§1) Recombinant proMMP-13 was expressed and purified as previously described ([18]). […] ProMMP-13(E204A) was expressed in Escherichia coli BL21(DE3), refolded, purified, and activated essentially as described for proMMP-1(E200A) ([19], [20]).
# (§2) Unless stated otherwise, all peptides were triple-helical, a structure maintained by the flanking sequences, GPC(GPP)5- and -(GPP)5-GPC-amide, at their N and C terminus, respectively. For simplicity, peptides are referred to by their specific guest sequence. A negative control peptide, (GPC-(GPP)10-GPC-amide) is referred to as GPP10.
# Immulon 2 HB 96-well plates (Nunc, Langenselbold, Germany) were coated with Collagen Toolkit or other peptides, fibrillar or monomeric collagen at a saturating concentration (10 μg/ml in 0.01 M acetic acid) overnight at 4 °C. Fibrous bovine type I collagen was a gift from Ethicon Corporation (Somerville, NJ). […] All further incubations were performed at 24 °C for 1 h unless otherwise stated. The wells were washed three times with adhesion buffer (1 mg/ml BSA in Tris-buffered saline (TBS) containing 0.1% (v/v) Tween-20) between each incubation step. […] Rabbit HRP-linked anti-GST (GE Healthcare; dilution 1:10,000) was used to detect GST-Hpx. […] Binding curves were fitted using Prism 5.0 software (GraphPad, San Diego), allowing total binding (Bmax) and equilibrium dissociation constant (KD) to be determined.
# FIGURE 1. […] For reference, collagen D-periods corresponding to these peptides are shown as gray bars below, and the collagenase cleavage site indicated by an arrow.
# [2] = biological target: T1, MMP-13; assay: MMP-13 Toolkit SPBA, pro and active forms, wild type and E204A taken together; format: binding; conditions: for binding of MMP-13 preparations: all or several MMP-13 preparations, SPBA
# Excerpt: as §1, §2
# Immulon 2 HB 96-well plates (Nunc, Langenselbold, Germany) were coated with Collagen Toolkit or other peptides, fibrillar or monomeric collagen at a saturating concentration (10 μg/ml in 0.01 M acetic acid) overnight at 4 °C. Fibrous bovine type I collagen was a gift from Ethicon Corporation (Somerville, NJ). Monomeric collagen was obtained from Devro (Bathurst, Australia). All further incubations were performed at 24 °C for 1 h unless otherwise stated. The wells were washed three times with adhesion buffer (1 mg/ml BSA in Tris-buffered saline (TBS) containing 0.1% (v/v) Tween-20) between each incubation step. The wells were blocked with 50 mg/ml BSA in TBS prior to the addition of MMP at a concentration of 83 nM (unless otherwise stated) in adhesion buffer. […] Rabbit HRP-linked anti-GST (GE Healthcare; dilution 1:10,000) was used to detect GST-Hpx. […] Binding curves were fitted using Prism 5.0 software (GraphPad, San Diego), allowing total binding (Bmax) and equilibrium dissociation constant (KD) to be determined.
# [3] = system: MMP-13 GST-Hpx domain; assay: MMP-13 Toolkit SPBA, isolated GST-Hpx domain; format: binding; conditions: Hpx 83 nM, anti-GST detection, 1 h, 24 °C
# Excerpt: as §1, §2
# (§3) Immulon 2 HB 96-well plates (Nunc, Langenselbold, Germany) were coated with Collagen Toolkit or other peptides, fibrillar or monomeric collagen at a saturating concentration (10 μg/ml in 0.01 M acetic acid) overnight at 4 °C. Fibrous bovine type I collagen was a gift from Ethicon Corporation (Somerville, NJ). Monomeric collagen was obtained from Devro (Bathurst, Australia). All further incubations were performed at 24 °C for 1 h unless otherwise stated. The wells were washed three times with adhesion buffer (1 mg/ml BSA in Tris-buffered saline (TBS) containing 0.1% (v/v) Tween-20) between each incubation step. […] Binding curves were fitted using Prism 5.0 software (GraphPad, San Diego), allowing total binding (Bmax) and equilibrium dissociation constant (KD) to be determined. […]
# [4] = system: Cat domain of MMP-13 (Δ249–451); assay: MMP-13 Toolkit SPBA, isolated Cat domain; format: binding; conditions: data not shown for Toolkit II
# Experimental: as §1
# Immulon 2 HB 96-well plates (Nunc, Langenselbold, Germany) were coated with Collagen Toolkit or other peptides, fibrillar or monomeric collagen at a saturating concentration (10 μg/ml in 0.01 M acetic acid) overnight at 4 °C. Fibrous bovine type I collagen was a gift from Ethicon Corporation (Somerville, NJ). Monomeric collagen was obtained from Devro (Bathurst, Australia). All further incubations were performed at 24 °C for 1 h unless otherwise stated. The wells were washed three times with adhesion buffer (1 mg/ml BSA in Tris-buffered saline (TBS) containing 0.1% (v/v) Tween-20) between each incubation step. […] Binding curves were fitted using Prism 5.0 software (GraphPad, San Diego), allowing total binding (Bmax) and equilibrium dissociation constant (KD) to be determined.
# Proteins were C-terminally biotinylated using an EZ-Link® Micro Sulfo-NHS-Biotinylation Kit (Pierce) according to the manufacturer's instructions. Successful biotinylation was detected via Western blotting using an ultrasensitive Streptavidin-Peroxidase Polymer (Sigma).
# [5] = biological target: T2, MMP-13(E204A) (Homo sapiens, UniProt P45452, E223A); assay: MMP-13 Toolkit SPBA, active-site mutant MMP-13(E204A); format: binding; conditions: 83 nM, coating 10 μg/ml, 1 h, 24 °C
# T2 construct: made in house; host or cells: Escherichia coli BL21(DE3)
# Excerpt: as §1, §2, §3
# [6] = system: MMP-13; conditions: cited from earlier work
# Excerpt: Collagenolytic MMPs are members of the zinc-dependent peptidase family whose tightly regulated proteolytic activities play a pivotal role in extracellular matrix homeostasis, cell migration and wound healing. […] The Cat and Hpx are thought to cooperate to recognize and bind to the cleavage site, in collagen D-period 4 (D4), three-quarters of the way along the tropocollagen molecule ([6], [7]). Binding of the Hpx is considered to facilitate local relaxation of the helix, allowing the Cat d ... || Comparison of the collagenase cleavage sites of the various fibrillar collagens with the sequences of the MMP-13-binding peptides provides a basis for their relative recognition and subsequent cleavage.
# [7] = system: proMMP-9; conditions: ref [32]; cited from earlier work
# Excerpt: (§4) How can MMP-13 avoid this constraint? […] The effect is to move the collagen-binding S10′ pocket of M ...
# [8] = system: proMMP-1; conditions: ref [7], [31]; cited from earlier work
# Excerpt: as §4
# [9] = system: proMMP-3; conditions: ref [32]; cited from earlier work
# Excerpt: as §4
substance,measurement,setting,value
"fibrillar type I collagen: Fibrous bovine type I collagen, a gift from Ethicon Corporation",A450 (adhesion),"[1]; wild type MMP-13 (active or pro form not stated for the numbers), 83 nM, plates coated 10 μg/ml, mean of four experiments",≥ 1.0
same,Kd,"[2]; fibrillar collagen, MMP-13 preparations overall",~40 nM
same,binding,[3],bound fibrillar collagen I
same,binding,[4],"bound fibrillar collagen I, albeit weakly"
"GPQG∼LAGQRGIVGLOGQRGER [44J, 21-residue peptide, P4 to P17′, parent of the Ala-scan]",binding of MMP-13 preparations,[2],"MMP-13(E204A) binding most strongly (A450 ∼0.8), then proMMP-13, then proMMP-13(E204A), then active MMP-13, and lastly the Hpx domain alone"
same,A450 (adhesion),"[3]; coating 10 μg/ml, mean of four experiments",~0.4
same,A450 (adhesion),[5]; mean of four experiments,~0.8
collagen II: preferred substrate for MMP-13,relative cleavage rate by MMP-13,"[6]; collagen II compared with collagens I and III, ref [3]",five times faster than collagen I; also recorded: six times faster than collagen III
same,cleavage site of MMP-13,"[6]; position within collagen II helical domain, ref [11], [12]",Gly^775–Leu^776; also recorded: Gly^778–Gln^779
"GFOGLOGPS [44B, peptide containing only the missing triplets, GFOGLOGPS]",binding of MMP-13 preparations,[2],supported no binding
"monomeric type I collagen: Monomeric collagen obtained from Devro (Bathurst, Australia)",binding,[1],much lower binding
same,binding,[5],much lower binding
collagen,binding of MMP-13 preparations,[2],support firm adhesion of MMP-13 in both its active and pro- forms
same,binding of proMMP-9,[7],can bind collagen
same,binding of proMMP-1,[8],did not bind
same,binding of proMMP-3,[9],can bind collagen
same,binding,[4],able to recognize collagen; also recorded: bound weakly
GCPP(GPPP)2GGPPPG-II-44 guest sequence -P(GPPP)2GGPPPGCPG-amide [linear peptide equivalent to II-44],binding,[1],unable to bind
same,binding of MMP-13 preparations,[2],negligible binding
